Experimental data reported in paper PMC3003753 (Journal of medicinal chemistry, 2010).

What was measured:
CCR5 = CCR5 (Homo sapiens, UniProt P51681); experiment: cAMP assay, U87CD4CCR5 cells stimulated with CCL5; type: cell-based; conditions: 150 ng/mL CCL5
[1] = Further preclinical studies of compound 5; type: in vivo; conditions: data not shown
[2] = test system: carrageenan-induced mouse paw inflammation; experiment: Carrageenan-induced paw edema model; type: in vivo; conditions: for Paw inflammation inhibition percentage: 10 mg/kg i.p. daily; for Paw inflammation suppression compared with 4: 10 mg/kg i.p. versus 4 at 300 µg/kg
CXCR4 [3] = target: T1, CXCR4 (Homo sapiens, UniProt P61073); experiment: cAMP assay; type: cell-based
CXCR4 [4] = target: T1, CXCR4; experiment: Ca2+ flux induced by CXCR4/CXCL12 interaction; type: cell-based; conditions: Gq pathway; data not shown
[5] = test system: CXCR4/CXCL12-mediated Matrigel invasion of MDA-MB-231 cells; experiment: Matrigel invasion assay, CXCL12 as chemoattractant; type: cell-based; conditions: 10 nM compound, 200 ng/mL CXCL12, 0.01 µM
Melanoma OMM2.3 cells = experiment: Uveal melanoma micrometastasis mouse model; type: in vivo; conditions: for Number of hepatic micrometastases: control around 90
[6] = Blood clearance and bioavailability of 26 in mice; conditions: mouse, in vivo
[7] = test system: bleomycin induced lung fibrosis; experiment: Bleomycin induced lung fibrosis model; type: in vivo, mouse; conditions: 300 µg/kg i.p. daily, day 20 after bleomycin
[8] = test system: MDA-MB-231 cells in Matrigel plugs; experiment: In vivo tumor angiogenesis assay; set-up: species or system mouse; conditions: 300 µg/kg daily s.c., 10 days, nude mice

Chain of CCR5 (P51681 whole entry): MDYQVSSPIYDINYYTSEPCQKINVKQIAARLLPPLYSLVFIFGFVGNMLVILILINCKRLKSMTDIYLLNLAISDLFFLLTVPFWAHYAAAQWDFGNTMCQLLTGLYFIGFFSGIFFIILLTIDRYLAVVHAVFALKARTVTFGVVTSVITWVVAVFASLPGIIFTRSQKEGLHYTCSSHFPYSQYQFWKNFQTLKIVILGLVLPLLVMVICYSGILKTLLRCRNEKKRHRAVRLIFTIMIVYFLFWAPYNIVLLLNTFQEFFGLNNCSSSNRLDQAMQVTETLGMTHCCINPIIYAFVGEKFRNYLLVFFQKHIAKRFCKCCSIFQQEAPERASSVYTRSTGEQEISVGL
T1 sequence (P61073 whole entry): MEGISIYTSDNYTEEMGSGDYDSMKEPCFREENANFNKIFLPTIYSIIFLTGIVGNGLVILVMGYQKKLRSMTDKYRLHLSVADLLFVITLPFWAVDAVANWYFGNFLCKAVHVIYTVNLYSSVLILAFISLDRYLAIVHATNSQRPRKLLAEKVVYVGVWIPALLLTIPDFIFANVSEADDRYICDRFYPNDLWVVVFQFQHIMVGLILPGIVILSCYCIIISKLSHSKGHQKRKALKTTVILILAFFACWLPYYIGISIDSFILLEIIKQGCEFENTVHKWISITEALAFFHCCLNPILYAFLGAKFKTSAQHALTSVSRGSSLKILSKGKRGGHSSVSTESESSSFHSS

Molecule: c1ccc(NCc2ccc(CNc3ccccn3)cc2)nc1 [Compound 5, WZ811]
- Effect on blocking CCL5 stimulating CCR5 (cAMP) (CCR5): no significant effect
- Bioavailability [1]: poor bioavailability
- In vivo efficacy [1]: failed to exhibit any in vivo efficacy

Molecule: Fc1cccc(NCc2ccc(CNc3ncccn3)cc2)n1 [Compound 10e, N-(4-((6-fluoropyridin-2-ylamino)methyl)benzyl)pyrimidin-2-amine]
- Paw inflammation inhibition percentage ([2]; C57BL/6J mice): more than 50%
- Paw inflammation suppression compared with 4 [2]: comparable to 4

Molecule: Clc1cccc(NCc2ccc(CNc3ncccn3)cc2)n1 [Compound 10g, N-(4-((6-chloropyridin-2-ylamino)methyl)benzyl)pyrimidin-2-amine]
- Paw inflammation inhibition percentage ([2]; C57BL/6J mice): more than 50%
- Paw inflammation suppression compared with 4 [2]: comparable to 4

Molecule: Fc1cnc(NCc2ccc(CNc3nccc(C(F)(F)F)n3)cc2)nc1 [Compound 21a, N-(4-((5-fluoropyrimidin-2-ylamino)methyl)benzyl)-4-(trifluoromethyl)pyrimidin-2-amine]
- Interrupting CXCL12/CXCR4-mediated cAMP modulation (CXCR4 [3]): effective
- Block of Ca2+ flux induced by CXCR4/CXCL12 interaction (CXCR4 [4]): do not block

Molecule: CSc1nccc(NCc2ccc(CNc3ncc(F)cn3)cc2)n1 [Compound 21b, 5-fluoro-N-(4-((2-(methylthio)pyrimidin-4-ylamino)methyl)benzyl)pyrimidin-2-amine]
- Paw inflammation suppression compared with 4 [2]: comparable to 4
- Invasion Inhibition 10nM [5]: 62%

Molecule: CCOCCN1CCN(C(=O)c2cnc(NCc3ccc(CNc4ncc(F)cn4)cc3)nc2C(F)(F)F)CC1 [Compound 21c, (4-(2-ethoxyethyl)piperazin-1-yl)(2-(4-((5-fluoropyrimidin-2-ylamino)methyl)benzylamino)-4-(trifluoromethyl)pyrimidin-5-yl)methanone]
- Effect on blocking CCL5 stimulating CCR5 (cAMP) (CCR5): no significant effect

Molecule: Fc1cnc(Cl)nc1NCc1ccc(CNc2ccnc(NCCN3CCOCC3)n2)cc1 [Compound 26]
- IC50 (CXCR4 [3]): ~1 nM
- Interrupting CXCL12/CXCR4-mediated cAMP modulation (CXCR4 [3]): effective
- Effect on blocking CCL5 stimulating CCR5 (cAMP) (CCR5): no significant effect
- Paw inflammation suppression compared with 4 [2]: comparable to 4
- Invasion Inhibition 10nM [5]: > 60%
- Block of Ca2+ flux induced by CXCR4/CXCL12 interaction (CXCR4 [4]): do not block
- Number of hepatic micrometastases (Melanoma OMM2.3 cells; 10 mg/kg i.p. daily): around 40
- Oral bioavailability [6]: lack of oral bioavailability

Molecule: TN14003 [Compound 4]
- Lung fibrosis inhibition [7]: 85%
- Paw inflammation suppression ([2]; 300 µg/kg i.p. daily, C57BL/6J mice): about 50%
- Decrease of hepatic micrometastases (Melanoma OMM2.3 cells; 300 µg/kg i.p. daily, nude mice): about 50%
- Number of hepatic micrometastases (Melanoma OMM2.3 cells; 300 µg/kg i.p. daily): around 40
- Angiogenesis inhibition (hemoglobin content of Matrigel plugs) [8]: about 70%
